Data from ChEMBL document CHEMBL5505978, “Novel estrogen receptor β/histone deacetylase dual-targeted near-infrared fluorescent probes as theranostic agents for imaging and treatment of prostate cancer” (Eur J Med Chem, 2024).
Active and inactive are the calls of the source. No cut-off for these calls is given here.

What was measured:
DU-145 [1] = experiment: cells; assay type: functional, cell-based; conditions: Homo sapiens
Description: Antiproliferative activity against human DU-145 cells assessed as inhibition of cell growth incubated for 3 to 5 days by CCK-8 assay

in vitro = conditions: green monkey (Chlorocebus sabaeus), Vero cells
Description: Antiproliferative activity against green monkey Vero cells assessed as inhibition of cell growth incubated for 3 to 5 days by CCK-8 assay

[2] = biological target: T1, Protein deacetylase HDAC6 (Homo sapiens) (UniProt Q9UBN7); experiment: Binding affinity to HDAC6 in human DU-145 cells at 10 uM incubated for 30 mins by Alexa Fluor 488 staining based immunofluorescence based assay; assay type: cell-based; conditions: filed as agonist
T1 sequence (whole entry): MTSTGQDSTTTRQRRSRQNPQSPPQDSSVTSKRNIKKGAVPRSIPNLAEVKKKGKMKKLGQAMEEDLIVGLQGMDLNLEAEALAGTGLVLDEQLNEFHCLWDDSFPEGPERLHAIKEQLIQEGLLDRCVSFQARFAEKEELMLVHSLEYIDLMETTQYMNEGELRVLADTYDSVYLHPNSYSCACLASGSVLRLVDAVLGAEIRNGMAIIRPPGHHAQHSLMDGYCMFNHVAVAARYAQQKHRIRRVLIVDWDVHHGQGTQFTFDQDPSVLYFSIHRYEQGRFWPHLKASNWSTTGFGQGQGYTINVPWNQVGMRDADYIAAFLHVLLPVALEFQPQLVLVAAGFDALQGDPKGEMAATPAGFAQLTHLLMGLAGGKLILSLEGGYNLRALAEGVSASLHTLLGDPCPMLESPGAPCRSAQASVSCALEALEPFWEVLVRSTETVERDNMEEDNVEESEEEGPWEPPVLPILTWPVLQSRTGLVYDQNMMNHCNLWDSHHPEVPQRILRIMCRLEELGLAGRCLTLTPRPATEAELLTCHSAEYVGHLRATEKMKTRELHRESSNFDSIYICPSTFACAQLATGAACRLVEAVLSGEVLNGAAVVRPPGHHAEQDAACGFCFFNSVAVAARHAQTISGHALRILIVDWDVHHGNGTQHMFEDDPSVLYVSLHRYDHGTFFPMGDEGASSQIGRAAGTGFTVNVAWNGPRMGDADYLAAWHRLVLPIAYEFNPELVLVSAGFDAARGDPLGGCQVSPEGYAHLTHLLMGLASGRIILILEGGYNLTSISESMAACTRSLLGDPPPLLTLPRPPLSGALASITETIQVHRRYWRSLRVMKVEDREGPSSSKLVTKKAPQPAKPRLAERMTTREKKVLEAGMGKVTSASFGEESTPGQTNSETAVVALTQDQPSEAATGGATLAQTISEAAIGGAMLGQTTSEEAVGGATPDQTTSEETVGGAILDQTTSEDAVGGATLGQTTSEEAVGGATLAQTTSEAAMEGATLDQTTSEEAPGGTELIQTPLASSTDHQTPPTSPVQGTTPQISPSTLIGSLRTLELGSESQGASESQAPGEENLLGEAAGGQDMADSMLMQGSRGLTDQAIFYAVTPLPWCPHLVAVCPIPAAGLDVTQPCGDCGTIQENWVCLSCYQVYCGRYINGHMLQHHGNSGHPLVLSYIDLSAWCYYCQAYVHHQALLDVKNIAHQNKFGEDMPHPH

Histone deacetylase 1 = Histone deacetylase 1 (Homo sapiens, UniProt Q13547); experiment: Inhibition of HDAC1 (unknown origin) preincubated with compound for 30 mins followed by substrate addition measured after 15 mins by fluorescence based assay
Histone deacetylase 1, sequence (Q13547 whole entry): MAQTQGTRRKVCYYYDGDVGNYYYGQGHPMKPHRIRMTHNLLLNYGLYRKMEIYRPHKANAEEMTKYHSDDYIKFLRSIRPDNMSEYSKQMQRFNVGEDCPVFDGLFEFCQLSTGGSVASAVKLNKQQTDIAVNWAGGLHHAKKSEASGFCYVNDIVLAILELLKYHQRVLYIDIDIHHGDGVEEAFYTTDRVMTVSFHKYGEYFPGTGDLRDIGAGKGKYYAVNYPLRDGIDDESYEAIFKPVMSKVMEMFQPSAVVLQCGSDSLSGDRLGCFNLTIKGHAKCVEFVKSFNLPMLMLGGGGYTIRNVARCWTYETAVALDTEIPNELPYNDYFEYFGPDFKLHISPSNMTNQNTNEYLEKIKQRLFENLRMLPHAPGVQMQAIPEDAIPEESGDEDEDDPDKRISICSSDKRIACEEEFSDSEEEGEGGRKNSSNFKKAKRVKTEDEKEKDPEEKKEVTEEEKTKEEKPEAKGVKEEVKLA

[3] = Drug uptake in human DU-145 cells assessed as colocalization in nucleus by measuring fluorescence signal at 10 uM incubated for 30 mins by DAPI staining based fluorescence imaging analysis; assay type: ADME, cell-based; conditions: du-145, 0.5 h
[4] = Drug uptake in human DU-145 cells assessed as colocalization in […] by measuring fluorescence signal at 10 uM incubated for 30 mins by Mito-Tracker Green staining based fluorescence imaging analysis; assay type: ADME, cell-based; conditions: du-145, 0.5 h
[5] = biological target: Estrogen receptor beta (Homo sapiens) (UniProt Q92731); experiment: Binding affinity to ERbeta in human DU-145 cells at 10 uM incubated for 30 mins by immunofluorescence based assay; assay type: cell-based; conditions: filed as agonist
Estrogen receptor beta (Homo sapiens), sequence (Q92731 whole entry): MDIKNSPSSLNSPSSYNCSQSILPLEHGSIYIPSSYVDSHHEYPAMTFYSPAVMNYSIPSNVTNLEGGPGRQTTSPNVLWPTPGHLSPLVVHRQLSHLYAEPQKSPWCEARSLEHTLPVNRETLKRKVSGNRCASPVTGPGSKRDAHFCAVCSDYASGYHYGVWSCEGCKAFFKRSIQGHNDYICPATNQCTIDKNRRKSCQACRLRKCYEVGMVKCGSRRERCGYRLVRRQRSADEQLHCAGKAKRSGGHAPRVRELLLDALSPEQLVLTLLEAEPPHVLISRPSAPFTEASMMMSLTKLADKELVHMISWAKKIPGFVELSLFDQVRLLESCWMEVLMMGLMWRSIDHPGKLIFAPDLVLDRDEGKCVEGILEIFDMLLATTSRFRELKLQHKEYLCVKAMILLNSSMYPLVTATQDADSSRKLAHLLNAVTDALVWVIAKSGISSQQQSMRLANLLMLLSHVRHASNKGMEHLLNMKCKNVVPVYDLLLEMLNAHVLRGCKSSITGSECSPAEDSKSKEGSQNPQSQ

[6] = biological target: T2, Protein deacetylase HDAC6 (Homo sapiens, UniProt Q9UBN7); experiment: Inhibition of HDAC6 (unknown origin) preincubated with compound for 30 mins followed by substrate addition measured after 15 mins by fluorescence based assay
T2 sequence (Q9UBN7 whole entry): T1 sequence (whole entry)

DU-145 [7] = experiment: Antitumor activity against human DU-145 cells xenografted in Balb/c mouse assessed as reduction in tumor volume at 10 mg/kg,ip administration once every 2 days for 20 days; assay type: functional, organism-based; conditions: time 20.0 day
DU-145 [8] = experiment: Antitumor activity against human DU-145 cells xenografted in Balb/c mouse assessed as reduction in tumor weight at 10 mg/kg,ip administration once every 2 days for 20 days; assay type: functional, organism-based; conditions: time 20.0 day
[9] = Toxicity in Balb/c mouse xenografted with human DU-145 cells assessed as change in body weight at 10 mg/kg,ip administration once every 2 days for 20 days; assay type: organism-based; conditions: in vivo, 480 h, time 20 day
[10] = biological target: Estrogen receptor beta (Homo sapiens) (UniProt Q92731); experiment: Binding affinity to ERbeta in human DU-145 cells assessed as increase in intracellular fluorescence signal at 10 uM incubated for 1 hr in presence of SAHA by imaging analysis; assay type: cell-based
DU-145 [11] = experiment: Antitumor activity against human DU-145 cells xenografted in Balb/c mouse assessed as inhibition of tumor growth at 10 mg/kg,ip administration once every 2 days for 20 days; assay type: functional, organism-based; conditions: time 20.0 day
[12] = biological target: Estrogen receptor beta (Homo sapiens) (UniProt Q92731); experiment: Binding affinity to ERbeta in human DU-145 cells assessed as increase in intracellular fluorescence signal at 10 uM incubated for 30 mins by imaging analysis; assay type: cell-based; conditions: filed as agonist
[13] = Drug uptake in Balb/c mouse xenografted with human DU-145 cells assessed as increase in fluorescence intensity in tumor at 0.5 mg/kg,ip administration and measured at 12 hrs by imaging analysis; assay type: ADME, organism-based; conditions: in vivo
[14] = Drug uptake in Balb/c mouse xenografted with human DU-145 cells assessed as increase in fluorescence intensity in tumor at 0.5 mg/kg,ip administration and measured upto 24 hrs by imaging analysis; assay type: ADME, organism-based; conditions: in vivo
[15] = Drug uptake in Balb/c mouse xenografted with human DU-145 cells assessed as increase in fluorescence intensity in tumor tissue at 0.5 mg/kg,ip administration and measured at 17 hrs by imaging analysis; assay type: ADME, organism-based, Neoplasm; conditions: in vivo
[16] = Drug uptake in Balb/c mouse xenografted with human DU-145 cells assessed as increase in fluorescence intensity in tumor tissue at 0.5 mg/kg,ip administration and measured at 24 hrs by imaging analysis; assay type: ADME, organism-based, Neoplasm; conditions: in vivo
[17] = Drug uptake in Balb/c mouse xenografted with human DU-145 cells assessed as increase in fluorescence intensity in tumor tissue at 0.5 mg/kg,ip administration and measured at 36 hrs by imaging analysis; assay type: ADME, organism-based, Neoplasm; conditions: in vivo
[18] = Toxicity in Balb/c mouse xenografted with human DU-145 cells assessed as animal death at 10 mg/kg,ip administration once every 2 days for 20 days; assay type: organism-based; conditions: in vivo, 480 h, time 20 day
[19] = Drug uptake in Balb/c mouse xenografted with human DU-145 cells assessed as increase in fluorescence intensity in kidney at 0.5 mg/kg,ip administration and measured at 17 hrs by imaging analysis; assay type: ADME, organism-based; conditions: in vivo
[20] = Drug uptake in Balb/c mouse xenografted with human DU-145 cells assessed as increase in fluorescence intensity in tumor at 0.5 mg/kg,ip administration and measured at 17 hrs by imaging analysis; assay type: ADME, organism-based; conditions: in vivo
[21] = Drug uptake in Balb/c mouse xenografted with human DU-145 cells assessed as increase in fluorescence intensity in liver at 0.5 mg/kg,ip administration and measured at 17 hrs by imaging analysis; assay type: ADME, organism-based; conditions: in vivo
[22] = biological target: Estrogen receptor beta (Homo sapiens) (UniProt Q92731); experiment: Binding affinity to ERbeta in human DU-145 cells assessed as increase in intracellular fluorescence signal at 10 uM incubated for 30 mins in presence of estradiol by imaging analysis; assay type: cell-based

Row | IC50 (DU-145 [1]) | IC50 (in vitro) | Compound | Activity [2] | IC50 (Histone deacetylase 1) | Drug uptake [3] | Drug uptake [4] | Activity [5] | IC50 [6] | Activity (DU-145 [7]) | Activity (DU-145 [8]) | other results
1 | 270 nM | 1450 nM | N#CC(C#N)=C1C=C(/C=C/c2ccc(O)cc2)Oc2ccc(O)cc21 | – | – | – | – | – | – | – | – | –
2 | 15300 nM | > 100000 nM | N#CC(C#N)=C1C=C(/C=C/c2ccc(O)c(NC(=O)CCCCCCC(=O)NO)c2)Oc2ccc(O)cc21 | 97.6% | Not Active | Active | Active | 96.3% | 2360 nM | – | – | –
3 | – | – | O=C(CCCCCCC(=O)Nc1ccccc1)NO | – | – | – | – | – | – | Active | Active | –

Row | Compound | IC50 (DU-145 [1]) | IC50 (in vitro) | Activity [2] | IC50 (Histone deacetylase 1) | Drug uptake [3] | Drug uptake [4] | Activity [5] | IC50 [6] | Activity (DU-145 [7]) | Activity (DU-145 [8]) | other results
4 | N#CC(C#N)=C1C=C(/C=C/c2ccc(O)c(NC(=O)CCCCCCC(=O)NO)c2)Oc2ccccc21 | 960 nM | 6130 nM | 76.7% | Not Active | Active | Active | 90.8% | 52 nM | Active | Active | Activity [9]: Non-Toxic; Activity [10]: inactive; Activity (DU-145 [11]): Active; Activity [12]: Active; Drug uptake [13]: Active; Drug uptake [14]: Active; Drug uptake [15]: Active; Drug uptake [16]: Not Active; Drug uptake [17]: Not Active; Activity [18]: Non-Toxic; Drug uptake [19]: Not Active; Drug uptake [20]: Active; Drug uptake [21]: Not Active; Activity [22]: inactive
